The source of these data is patent US20060276445A1, “Bicyclic 6-alkylidene-penems as class-D beta-lactamases inhibitors” (priority 2005, published 2006).

This assay deals with E. coli GC 2883 (OXA-10 + PSE-2). As to the kind of experiment: Antimicrobial susceptibility testing, microbroth dilution (NCCLS), piperacillin combined with β-lactamase inhibitor. The conditions noted are these: Escherichia coli; piperacillin as control, without inhibitor. The assay is classed as cell-based. In general terms: Dilution methods test growth across graded concentrations, often in twofold steps.

Bounds are passed on as bounds.

For `CCN1CCN(C(=O)N[C@@H](C(=O)N[C@@H]2C(=O)N3[C@@H]2SC(C)(C)[C@@H]3C(=O)O)c2ccccc2)C(=O)C1=O` [piperacillin], the MIC50 – broadly, the lowest concentration that inhibits either 50% of growth or 50% of the strains tested, depending on the study – is more than 64 µg/mL.
